Test results taken from patent US20060167057A1, “Compounds for the treatment of CNS and amyloid associated diseases” (priority 2004, published 2006).

Biological target: Aβ40 (Homo sapiens, UniProt P05067)
Test: Electrospray MS assay for binding to Aβ40
Set-up: key: +++ = Strong (70 and higher % of free peptide); ++ = Moderate (50-70% of free peptide); + = Weak (25-50% of free peptide); 0 = None
Settings: 100 μM compound, 20 μM Aβ40, pH 7.4
From the text: (§1) The ability of a therapeutic compound of the invention to inhibit an interaction between an amyloidogenic protein and a glycoprotein or proteoglycan constituent of a basement membrane can be assessed by an in vitro binding assay, such as that described in U.S. Pat. No. 5,164,295, the contents of which are hereby incorporated by reference. Alternatively, the ability of a compound to bind to an amyloidogenic protein or to inhibit the binding of a basement membrane constituent (e.g. HSPG) to an amyloidogenic protein (e.g. Aβ) can be measured using a mass spectrometry assay where soluble protein, e.g Aβ, IAPP, β2M is incubated with the compound. A compound which binds to, e.g Aβ, will induce a change in the mass spectrum of the protein. Exemplary protocols for a mass spectrometry assay employing Aβ and IAPP can be found in the Examples, the results of which are provided in Table 5. The protocol can readily be modified to adjust the sensitivity of the data, e.g., by adjusting the amount of protein and/or compound employed. Thus, e.g., binding might be detected for test compounds noted as not having detectable binding employing less sensitive test protocols.
The binding ability between the compounds synthesized in Example 4 and Aβ40 in an aqueous solution is tested. The binding ability is attributed semi-quantitatively from the intensities of peptide-compound complex peaks observed in the Electrospray Mass Spectrum.
In the MS assay for Aβ40, samples are prepared as aqueous solutions adding 20% ethanol if necessary to solubilize in water. The stock solution of the peptide contains 50 μm Aβ40. In a typical experiment, 100 μM of an exemplary compound as prepared in Example 4 and 20 μM of solubilized Aβ40 are used. The ratio of the compound: peptide is 5:1. The pH value of each sample is adjusted to 7.4 (±0.2) by addition of 0.1% aqueous sodium hydroxide. The solutions are then analyzed by electrospray ionization mass spectrometry using a Waters ZQ 4000 mass spectrometer. Samples are introduced by direct infusion at a flow-rate of 25 μL/min within 2 hr. after sample preparation. The source temperature is kept at 70° C. and the cone voltage is 20 V for all the analysis. Data are processed using Masslynx 3.5 software. Aβ 1-40 (M.W.=4329) alone at 20 μM is analyzed at pH 7.32 as a control. Sodium clusters, which are typical of this system at +3 and +4 at m/z […] regions, may be observed. The MS assay gives data on the ability of compounds to bind to soluble Aβ, whereas the ThT, EM and CD assays give data on inhibition of fibrillogenesis.
In Table 7, a blank box means that a value was not determined for that compound in that assay.

Aβ40, sequence (P05067 672-711 limits assumed): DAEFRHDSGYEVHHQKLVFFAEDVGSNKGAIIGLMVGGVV

MS Results (Aβ 1-40 binding)	SMILES
+ (+ = Weak (25-50% of free peptide))	N[C@@H](Cc1cccc(CSc2nnnn2-c2ccccc2)c1)C(=O)O [drawing 488]
+ (+ = Weak (25-50% of free peptide))	N[C@@H](Cc1cccc(CS(=O)(=O)c2ncc[nH]2)c1)C(=O)O [drawing 505]
+ (+ = Weak (25-50% of free peptide))	N[C@@H](Cc1cccc(CSc2nnc(-c3ccccc3)[nH]2)c1)C(=O)O [drawing 490]
0	N[C@@H](Cc1cccc(CSc2nccc(O)n2)c1)C(=O)O [drawing 495]
+ (+ = Weak (25-50% of free peptide))	N[C@@H](Cc1cccc(CSc2nnc(-c3ccncc3)o2)c1)C(=O)O [drawing 502]
+ (+ = Weak (25-50% of free peptide))	N[C@@H](Cc1cccc(CSc2nnnn2-c2ccc(O)cc2)c1)C(=O)O [drawing 501]
+ (+ = Weak (25-50% of free peptide))	N[C@@H](Cc1cccc(CSc2nc3ccccc3[nH]2)c1)C(=O)O [drawing 489]

The remaining lines, values behind:

SMILES	MS Results (Aβ 1-40 binding)
N[C@@H](Cc1cccc(CSc2nccc(C(F)(F)F)n2)n1)C(=O)O [drawing 497]	Compound insoluble
COc1ccc(-n2nnnc2SCc2cccc(C[C@H](N)C(=O)O)c2)cc1 [drawing 487]	+ (+ = Weak (25-50% of free peptide))
N[C@@H](Cc1cccc(CS(=O)(=O)c2nc3ccccc3[nH]2)n1)C(=O)O [drawing 493]	+ (+ = Weak (25-50% of free peptide))
COc1ccc(-n2nnnc2[S+]([O-])Cc2cccc(C[C@H](N)C(=O)O)c2)cc1 (some centres unmarked) [drawing 503]	+ (+ = Weak (25-50% of free peptide))
N[C@@H](Cc1cccc(CSc2nc3ccc(Cl)cc3s2)n1)C(=O)O [drawing 498]	Compound Insoluble
N[C@@H](Cc1cccc(C[S+]([O-])c2nnnn2-c2ccccc2)c1)C(=O)O (some centres unmarked) [drawing 496]	+ (+ = Weak (25-50% of free peptide))
COc1ccc(-n2nnnc2[S+]([O-])Cc2cccc(C[C@H](N)C(=O)O)c2)cc1 (some centres unmarked) [drawing 494]	0
N[C@@H](Cc1cccc(CSc2ncnc3[nH]ncc23)n1)C(=O)O [drawing 492]	+ (+ = Weak (25-50% of free peptide))
N[C@@H](Cc1cccc(CSc2nc3ccccc3[nH]2)n1)C(=O)O [drawing 491]	+ (+ = Weak (25-50% of free peptide))
N[C@@H](Cc1cccc(CS(=O)(=O)c2nc3ccccc3[nH]2)c1)C(=O)O [drawing 499]	++ (++ = Moderate (50-70% of free peptide))
N[C@@H](Cc1cccc(C[S+]([O-])c2nnnn2-c2ccccc2)n1)C(=O)O (some centres unmarked) [drawing 500]	0
N[C@@H](Cc1cccc(C[S+]([O-])c2nnc(-c3ccccc3)[nH]2)c1)C(=O)O (some centres unmarked) [drawing 504]	0

Biological target: T1, IAPP (Homo sapiens, UniProt P10997)
T1 construct: which is a 37 amino acid peptide, derived from a larger precursor peptide, called pro-IAPP
T1 sequence (P10997 34-70 limits assumed): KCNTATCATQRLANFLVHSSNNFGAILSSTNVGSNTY
Test: Electrospray MS assay for binding to IAPP
Set-up: key to MS Results (IAPP binding), Water: 0 = None
Settings: 100 μM compound, 20 μM IAPP, pH 7.4, 20% ethanol in water
From the text: as §1
The binding ability between the compounds synthesized in Example 4 and IAPP in an aqueous solution is tested. The binding ability is attributed semi-quantitatively from the intensities of peptide-compound complex peaks observed in the Electrospray Mass Spectrum.
In the MS assay for IAPP, samples are prepared as both aqueous solutions and as 20% ethanol in water solutions, including 100 μM of an exemplary compound as prepared in. Example 4 and 20 μM of solubilized IAPP. The stock solution contains 30 μM IAPP and the initial pH is 3.8. Generally, IAPP precipitates out of solution at concentrations higher than 50 μM and pH higher than ˜6 as soon as a test compound is mixed with the peptide. The pH value of each sample, therefore, is adjusted to 7.4 ([…]) by addition of 0.1% aqueous sodium hydroxide. The solutions aer then analyzed by electrospray ionization mass spectrometry using a Waters ZQ 4000 mass spectrometer. Samples are introduced by direct infusion at a flow-rate of 25 μL/min within 2 hr. after sample preparation. The source temperature is kept at 70° C. and the cone voltage is 20 V for all the analysis. Data are processed using Masslynx 3.5 software. IAPP (MW 3903.4) alone at 20 μM is analyzed at pH 7.32 as a control. Sodium clusters, which are typical of this system at +3 and +4 at m/z 1301.9 and 976.7 regions, may be observed. In Table 8, a blank box means that a value was not determined for that compound in that assay.

SMILES	MS Results (IAPP binding), 20% Ethanol
N[C@@H](Cc1cccc(CSc2nnc(-c3ccncc3)o2)c1)C(=O)O [drawing 524]	+ (+ = Weak (15-30% of free peptide))
COc1ccc(-n2nnnc2SCc2cccc(C[C@H](N)C(=O)O)c2)cc1 [drawing 508]	+++ (+++ = Strong (50 and higher % of free peptide))
N[C@@H](Cc1cccc(C[S+]([O-])c2nnnn2-c2ccccc2)n1)C(=O)O (some centres unmarked) [drawing 522]	++ (++ = Moderate (30-50% of free peptide))
CN(C)CCn1nnnc1SCc1cccc(C[C@H](N)C(=O)O)c1 [drawing 525]	+ (+ = Weak (15-30% of free peptide))
N[C@@H](Cc1cccc(CSc2nc3ccccc3[nH]2)c1)C(=O)O [drawing 510]	+ (+ = Weak (15-30% of free peptide))
N[C@@H](Cc1cccc(C[S+]([O-])c2nnnn2-c2ccccc2)c1)C(=O)O (some centres unmarked) [drawing 518]	++ (++ = Moderate (30-50% of free peptide))
N[C@@H](Cc1cccc(CSc2nnnn2-c2ccc(O)cc2)c1)C(=O)O [drawing 523]	+++ (+++ = Strong (50 and higher % of free peptide))
N[C@@H](Cc1cccc(CSc2nnnn2-c2ccccc2)c1)C(=O)O [drawing 509]	++ (++ = Moderate (30-50% of free peptide))

Same assay, conditions: 100 μM compound, 20 μM IAPP, pH 7.4, aqueous solution

MS Results (IAPP binding), Water	SMILES
0	N[C@@H](Cc1cccc(CS(=O)(=O)c2ncc[nH]2)c1)C(=O)O [drawing 527]
+ (+ = Weak (15-30% of free peptide))	N[C@@H](Cc1cccc(CSc2nnc(-c3ccncc3)[nH]2)c1)C(=O)O [drawing 528]
0	N[C@@H](Cc1cccc(CSc2nccc(O)n2)c1)C(=O)O [drawing 517]
0	N[C@@H](Cc1cccc(CSc2ncc[nH]2)c1)C(=O)O
+ (+ = Weak (15-30% of free peptide))	CN(C)CCn1nnnc1SCc1cccc(C[C@H](N)C(=O)O)c1 [drawing 525]
0	N[C@@H](Cc1cccc(CSc2nc3ccccc3[nH]2)c1)C(=O)O [drawing 510]
+ (+ = Weak (15-30% of free peptide))	N[C@@H](Cc1cccc(CSc2nnc(-c3ccccc3)[nH]2)c1)C(=O)O [drawing 511]
+ (+ = Weak (15-30% of free peptide))	N[C@@H](Cc1cccc(CSc2nnnn2-c2ccccc2)c1)C(=O)O [drawing 509]

More lines, now with the values behind:

SMILES	MS Results (IAPP binding), Water
N[C@@H](Cc1cccc(CSc2nnc(-c3ccncc3)o2)c1)C(=O)O [drawing 524]	++ (++ = Moderate (30-50% of free peptide))
N[C@@H](Cc1cccc(CS(=O)(=O)c2nc3ccccc3[nH]2)n1)C(=O)O [drawing 514]	0
N[C@@H](Cc1cccc(C[S+]([O-])c2nnc(-c3ccccc3)[nH]2)c1)C(=O)O (some centres unmarked) [drawing 526]	0
N[C@@H](Cc1cccc(CSc2ncnc3[nH]ncc23)n1)C(=O)O [drawing 513]	0
N[C@@H](Cc1cccc(CSc2nc3ccccc3[nH]2)n1)C(=O)O [drawing 512]	0
N[C@@H](Cc1cccc(C[S+]([O-])c2nnnn2-c2ccccc2)n1)C(=O)O (some centres unmarked) [drawing 522]	0
N[C@@H](Cc1cccc(C[S+]([O-])c2nnnn2-c2ccccc2)c1)C(=O)O (some centres unmarked) [drawing 518]	++ (++ = Moderate (30-50% of free peptide))
N[C@@H](Cc1cccc(CSc2nccc(C(F)(F)F)n2)n1)C(=O)O [drawing 519]	insoluble
COc1ccc(-n2nnnc2[S+]([O-])Cc2cccc(C[C@H](N)C(=O)O)c2)cc1 (some centres unmarked) [drawing 516]	+ (+ = Weak (15-30% of free peptide))
N[C@@H](Cc1cccc(CS(=O)(=O)c2nc3ccccc3[nH]2)c1)C(=O)O [drawing 521]	+ (+ = Weak (15-30% of free peptide))
N[C@@H](Cc1cccc(CSc2nnnn2-c2ccc(O)cc2)c1)C(=O)O [drawing 523]	++ (++ = Moderate (30-50% of free peptide))
N[C@@H](Cc1cccc(CSc2nc3ccc(Cl)cc3s2)n1)C(=O)O [drawing 520]	+++ (+++ = Strong (50 and higher % of free peptide))
